{
  "source": "PubChem BioAssay AID1963421",
  "about": "(Molecular Pharmacology Branch, DTP, NCI, 2024);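 also: seven day drug exposure begun three days after spheroid seeding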;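 as to viability, T/C: 100% = DMSO vehicle wells and lower values mean less viable spheroid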",
  "tested_on": "519858-162-T-J1-PDC complex spheroid growth, % test/control",
  "assay": "Anticancer human tumor 519858-162-T-J1-PDC patient-derived colon adenocarcinoma cell line growth inhibition [Asc]",
  "settings": "for IC50: curve of first compound; for viability, T/C: stronger effect = lower value",
  "how_it_was_run": "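Concentration series start at each agent's clinical Cmax, or at 10 microM when none is established, and drop in half-log steps; agents are applied alone or together to complex spheroids built with HUVEC and hMSC.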",
  "key": {"[1]": {"settings": "second compound 0.00949 µM, first compound 0.0316 µM"}, "[2]": {"settings": "second compound 0.00949 µM, first compound 0.1 µM"}, "[3]": {"settings": "second compound 0.00949 µM, first compound 0.316 µM"}, "[4]": {"settings": "second compound 0.00949 µM, first compound 1 µM"}, "[5]": {"settings": "second compound 0.03 µM, first compound 0.0316 µM"}, "[6]": {"settings": "second compound 0.03 µM, first compound 0.1 µM"}, "[7]": {"settings": "second compound 0.03 µM, first compound 0.316 µM"}, "[8]": {"settings": "second compound 0.03 µM, first compound 1 µM"}, "[9]": {"settings": "second compound 0.0949 µM, first compound 0.0316 µM"}, "[10]": {"settings": "second compound 0.0949 µM, first compound 0.1 µM"}, "[11]": {"settings": "second compound 0.0949 µM, first compound 0.316 µM"}, "[12]": {"settings": "second compound 0.0949 µM, first compound 1 µM"}, "[13]": {"settings": "second compound 0.3 µM, first compound 0.0316 µM"}, "[14]": {"settings": "second compound 0.3 µM, first compound 0.1 µM"}, "[15]": {"settings": "second compound 0.3 µM, first compound 0.316 µM"}, "[16]": {"settings": "second compound 0.3 µM, first compound 1 µM"}, "[17]": {"settings": "second compound 0.949 µM, first compound 0.0316 µM"}, "[18]": {"settings": "second compound 0.949 µM, first compound 0.1 µM"}, "[19]": {"settings": "second compound 0.949 µM, first compound 0.316 µM"}, "[20]": {"settings": "second compound 0.949 µM, first compound 1 µM"}, "[21]": {"settings": "second compound 3 µM, first compound 0.0316 µM"}, "[22]": {"settings": "second compound 3 µM, first compound 0.1 µM"}, "[23]": {"settings": "second compound 3 µM, first compound 0.316 µM"}, "[24]": {"settings": "second compound 3 µM, first compound 1 µM"}},
  "data": [
    {"smiles": "C#Cc1c(F)ccc2cc(O)cc(-c3ncc4c(N5CC6CCC(C5)N6)nc(OCC56CCCN5CC(F)C6)nc4c3F)c12", "note": "(centres undefined) + CCN1C(C(=O)NC23CCC(C(=O)O)(CC2)CC3)C(c2cccc(Cl)c2F)C2(C(=O)Nc3cc(Cl)ccc32)C12CCCCC2", "values": [
      {"measurement": "IC50", "setting": "second compound 0.00949 µM", "result": "> 10", "unit": "µM"},
      {"measurement": "IC50", "setting": "second compound 0.03 µM", "result": "> 10", "unit": "µM"},
      {"measurement": "IC50", "setting": "second compound 0.0949 µM", "result": "> 10", "unit": "µM"},
      {"measurement": "IC50", "setting": "second compound 0.3 µM", "result": "> 10", "unit": "µM"},
      {"measurement": "IC50", "setting": "second compound 0.949 µM", "result": "> 10", "unit": "µM"},
      {"measurement": "IC50", "setting": "second compound 3 µM", "result": "> 10", "unit": "µM"},
      {"measurement": "viability, T/C", "setting": "[1]", "result": 75.2, "unit": "%"},
      {"measurement": "viability, T/C", "setting": "[2]", "result": 104, "unit": "%"},
      {"measurement": "viability, T/C", "setting": "[3]", "result": 84.3, "unit": "%"},
      {"measurement": "viability, T/C", "setting": "[4]", "result": 66.3, "unit": "%"},
      {"measurement": "viability, T/C", "setting": "second compound 0.00949 µM, first compound 3.16 µM", "result": 82.3, "unit": "%"},
      {"measurement": "viability, T/C", "setting": "second compound 0.00949 µM, first compound 10 µM", "result": 64, "unit": "%"},
      {"measurement": "viability, T/C", "setting": "[5]", "result": 67.5, "unit": "%"},
      {"measurement": "viability, T/C", "setting": "[6]", "result": 84.6, "unit": "%"},
      {"measurement": "viability, T/C", "setting": "[7]", "result": 96.4, "unit": "%"},
      {"measurement": "viability, T/C", "setting": "[8]", "result": 92.4, "unit": "%"},
      {"measurement": "viability, T/C", "setting": "second compound 0.03 µM, first compound 3.16 µM", "result": 94.3, "unit": "%"},
      {"measurement": "viability, T/C", "setting": "second compound 0.03 µM, first compound 10 µM", "result": 88.4, "unit": "%"},
      {"measurement": "viability, T/C", "setting": "[9]", "result": 89.6, "unit": "%"},
      {"measurement": "viability, T/C", "setting": "[10]", "result": 99.2, "unit": "%"},
      {"measurement": "viability, T/C", "setting": "[11]", "result": 88.4, "unit": "%"},
      {"measurement": "viability, T/C", "setting": "[12]", "result": 64.1, "unit": "%"},
      {"measurement": "viability, T/C", "setting": "second compound 0.0949 µM, first compound 3.16 µM", "result": 81.4, "unit": "%"},
      {"measurement": "viability, T/C", "setting": "second compound 0.0949 µM, first compound 10 µM", "result": 69, "unit": "%"},
      {"measurement": "viability, T/C", "setting": "[13]", "result": 59.4, "unit": "%"},
      {"measurement": "viability, T/C", "setting": "[14]", "result": 95.5, "unit": "%"},
      {"measurement": "viability, T/C", "setting": "[15]", "result": 78.4, "unit": "%"},
      {"measurement": "viability, T/C", "setting": "[16]", "result": 71.2, "unit": "%"},
      {"measurement": "viability, T/C", "setting": "second compound 0.3 µM, first compound 3.16 µM", "result": 74.2, "unit": "%"},
      {"measurement": "viability, T/C", "setting": "second compound 0.3 µM, first compound 10 µM", "result": 102, "unit": "%"},
      {"measurement": "viability, T/C", "setting": "[17]", "result": 53.3, "unit": "%"},
      {"measurement": "viability, T/C", "setting": "[18]", "result": 116, "unit": "%"},
      {"measurement": "viability, T/C", "setting": "[19]", "result": 81.3, "unit": "%"},
      {"measurement": "viability, T/C", "setting": "[20]", "result": 58.5, "unit": "%"},
      {"measurement": "viability, T/C", "setting": "second compound 0.949 µM, first compound 3.16 µM", "result": 86.6, "unit": "%"},
      {"measurement": "viability, T/C", "setting": "second compound 0.949 µM, first compound 10 µM", "result": 93.6, "unit": "%"},
      {"measurement": "viability, T/C", "setting": "[21]", "result": 64.2, "unit": "%"},
      {"measurement": "viability, T/C", "setting": "[22]", "result": 60.6, "unit": "%"},
      {"measurement": "viability, T/C", "setting": "[23]", "result": 63.3, "unit": "%"},
      {"measurement": "viability, T/C", "setting": "[24]", "result": 77.7, "unit": "%"},
      {"measurement": "viability, T/C", "setting": "second compound 3 µM, first compound 3.16 µM", "result": 93, "unit": "%"},
      {"measurement": "viability, T/C", "setting": "second compound 3 µM, first compound 10 µM", "result": 66.7, "unit": "%"}
    ]},
    {"smiles": "CNC(C)C(=O)NC1CN(S(=O)(=O)c2cccc(S(=O)(=O)N3CCC4CCC(C(=O)NC(c5ccccc5)c5ccccc5)N4C(=O)C(NC(=O)C(C)NC)C3)c2)CCC2CCC(C(=O)NC(c3ccccc3)c3ccccc3)N2C1=O", "note": "(centres undefined) + CCN1C(C(=O)NC23CCC(C(=O)O)(CC2)CC3)C(c2cccc(Cl)c2F)C2(C(=O)Nc3cc(Cl)ccc32)C12CCCCC2", "values": [
      {"measurement": "IC50", "setting": "second compound 0.00949 µM", "result": "< 0.00316", "unit": "µM"},
      {"measurement": "IC50", "setting": "second compound 0.03 µM", "result": "> 1", "unit": "µM"},
      {"measurement": "IC50", "setting": "second compound 0.0949 µM", "result": "> 1", "unit": "µM"},
      {"measurement": "IC50", "setting": "second compound 0.3 µM", "result": "> 1", "unit": "µM"},
      {"measurement": "IC50", "setting": "second compound 0.949 µM", "result": "> 1", "unit": "µM"},
      {"measurement": "IC50", "setting": "second compound 3 µM", "result": "> 1", "unit": "µM"},
      {"measurement": "viability, T/C", "setting": "second compound 0.00949 µM, first compound 0.00316 µM", "result": 49.9, "unit": "%"},
      {"measurement": "viability, T/C", "setting": "second compound 0.00949 µM, first compound 0.01 µM", "result": 104, "unit": "%"},
      {"measurement": "viability, T/C", "setting": "[1]", "result": 91.5, "unit": "%"},
      {"measurement": "viability, T/C", "setting": "[2]", "result": 64.4, "unit": "%"},
      {"measurement": "viability, T/C", "setting": "[3]", "result": 98.7, "unit": "%"},
      {"measurement": "viability, T/C", "setting": "[4]", "result": 74.6, "unit": "%"},
      {"measurement": "viability, T/C", "setting": "second compound 0.03 µM, first compound 0.00316 µM", "result": 112, "unit": "%"},
      {"measurement": "viability, T/C", "setting": "second compound 0.03 µM, first compound 0.01 µM", "result": 89.9, "unit": "%"},
      {"measurement": "viability, T/C", "setting": "[5]", "result": 88.3, "unit": "%"},
      {"measurement": "viability, T/C", "setting": "[6]", "result": 79, "unit": "%"},
      {"measurement": "viability, T/C", "setting": "[7]", "result": 54.9, "unit": "%"},
      {"measurement": "viability, T/C", "setting": "[8]", "result": 99, "unit": "%"},
      {"measurement": "viability, T/C", "setting": "second compound 0.0949 µM, first compound 0.00316 µM", "result": 89.1, "unit": "%"},
      {"measurement": "viability, T/C", "setting": "second compound 0.0949 µM, first compound 0.01 µM", "result": 73.9, "unit": "%"},
      {"measurement": "viability, T/C", "setting": "[9]", "result": 85.1, "unit": "%"},
      {"measurement": "viability, T/C", "setting": "[10]", "result": 75.4, "unit": "%"},
      {"measurement": "viability, T/C", "setting": "[11]", "result": 60.4, "unit": "%"},
      {"measurement": "viability, T/C", "setting": "[12]", "result": 96.4, "unit": "%"},
      {"measurement": "viability, T/C", "setting": "second compound 0.3 µM, first compound 0.00316 µM", "result": 94.6, "unit": "%"},
      {"measurement": "viability, T/C", "setting": "second compound 0.3 µM, first compound 0.01 µM", "result": 75.3, "unit": "%"},
      {"measurement": "viability, T/C", "setting": "[13]", "result": 81.2, "unit": "%"},
      {"measurement": "viability, T/C", "setting": "[14]", "result": 68.2, "unit": "%"},
      {"measurement": "viability, T/C", "setting": "[15]", "result": 74.4, "unit": "%"},
      {"measurement": "viability, T/C", "setting": "[16]", "result": 58.2, "unit": "%"},
      {"measurement": "viability, T/C", "setting": "second compound 0.949 µM, first compound 0.00316 µM", "result": 94.3, "unit": "%"},
      {"measurement": "viability, T/C", "setting": "second compound 0.949 µM, first compound 0.01 µM", "result": 87.4, "unit": "%"},
      {"measurement": "viability, T/C", "setting": "[17]", "result": 85.7, "unit": "%"},
      {"measurement": "viability, T/C", "setting": "[18]", "result": 70.5, "unit": "%"},
      {"measurement": "viability, T/C", "setting": "[19]", "result": 68.2, "unit": "%"},
      {"measurement": "viability, T/C", "setting": "[20]", "result": 66, "unit": "%"},
      {"measurement": "viability, T/C", "setting": "second compound 3 µM, first compound 0.00316 µM", "result": 62, "unit": "%"},
      {"measurement": "viability, T/C", "setting": "second compound 3 µM, first compound 0.01 µM", "result": 76.1, "unit": "%"},
      {"measurement": "viability, T/C", "setting": "[21]", "result": 72.4, "unit": "%"},
      {"measurement": "viability, T/C", "setting": "[22]", "result": 93.9, "unit": "%"},
      {"measurement": "viability, T/C", "setting": "[23]", "result": 73.2, "unit": "%"},
      {"measurement": "viability, T/C", "setting": "[24]", "result": 74, "unit": "%"}
    ]}
  ]
}
